Structures are written as SMILES.

Test [1] is described as follows: Inhibition of human constitutive proteasome subunit beta type-2 in human erythrocytes using fluorogenic substrate by […].
Test [2] in a line: Inhibition of human constitutive proteasome subunit beta type-1 in human erythrocytes using fluorogenic substrate by […].

Turning to `CCC(C)/C=C(\C)c1cc2c(cn1)C(=O)c1c(cc(OC)c(O)c1O)C2=O` (stereo unspecified), the IC50 in test [1] and in test [2] was greater than 50 µM each time.
As to `CCC(C)/C=C(\C)C1=Cc2cc3c(c(O)c2CO1)C(=O)C(O)(CC(C)=O)C(OC)=C3` (stereo unspecified), the values for the IC50 in test [1] and in test [2] were greater than 50 µM and 19 µM, respectively.
Turning to `CCC(C)/C=C(\C)c1cc2c(cn1)C(=O)C1=C(N)C(=O)C(OC)=CC1=C2` (stereo unspecified), the values for the IC50 in test [1] and in test [2] were 42 µM and 17 µM, respectively.

As usually defined, the IC50 is the concentration that inhibits the measured activity by half. Read a low IC50 as inhibition by little substance.

Values taken from BindingDB's records for PubMed 35063633 (Kumamoto University, 2022).
